{"source": "PubChem BioAssay AID1053152", "about": "(Broad Institute, 2014)", "tested_on": "HepG2 TRIB1 mRNA expression, RT-qPCR, 6 h", "test": "TRIB1 mRNA induction under cholesterol depletion, late-stage follow-up, mechanism study for Trib1 inducer project, cell-based, HepG2, RT-PCR, cherry-pick (AID 1053152)", "settings": "active compounds read high"}
{"smiles": "CN1C(=O)c2cc(NC(=O)c3ccc(C(F)(F)F)cc3)ccc2OC[C@@H]2O[C@H](CC(=O)NC3Cc4ccccc4C3)CC[C@@H]21", "values": [{"measurement": "fold induction", "result": 2.5}]}
